In paper PMC8851282, “Senolysis induced by 25-hydroxycholesterol targets CRYAB in multiple cell types” (iScience, 2022):

Experiments:
[1] = test system: human skeletal muscle myoblasts (HSMMs); test: Cell viability assay (cell counting kit-8) of senescent and non-senescent HSMMs treated with inhibitors; format: cell-based; conditions: for viability of senescent versus non-senescent HSMMs: Doxo-induced senescence, viability on day 3; for IC50: Homo sapiens, Myoblast, HSMM
Experimental: (§1) Figure 3 25HC is a senolytic in multiple muscle cell types (A) Targets, compounds, and mechanisms. (B) Timeline of cell viability assay with inhibitors. Cells were pre-cultured for 24 h, treated with Doxo for 24 h, and then treated with inhibitors. Cell viability was analyzed from day 0–7. (C–E) Effects of inhibitors on viability of FAPs, SCs, and HSMMs. Cells were treated with inhibitors at the indicated concentrations. Cell viability was analyzed on day 3 (HSMMs) or 5 (FAPs and SCs). Blue and red dots indicate non-senescent (NS) and senescent (SEN), respectively. The average value at 0 μM for each group was set at 100% cell viability. p values versus NS were obtained using unpaired two-tailed Student’s t test. ∗p < 0.05, ∗∗p < 0.01, and ∗∗∗p < 0.001.
(§2) All experiments were performed in incubators at 37 °C, 3% O2 and 5% CO2. Senescence was induced by treatment with either Doxo (250 nM for 24 h) ([Demaria et al., 2017]) or X-irradiation (10 Gy) ([Limbad et al., 2020]). For cell culture studies using 25HC, it was used at the indicated concentrations in the media.
(§3) FAPs and SCs were cultured on Matrigel-coated dishes (BD Biosciences) in growth medium (GM) consisting of DMEM plus 10% FBS, 1% penicillin-streptomycin and 10% MyoCult (STEMCELL Technologies) for 7 days. Human myogenic cell HSMMs (Lonza) were maintained according to the manufacturer’s instructions with SkGM-2 medium (Lonza).
(§4) Cell viability was assessed using a cell counting kit-8 from Dojindo Molecular Technologies, Inc (Cat CK04-20). Cells were incubated with culture media + 10% kit cell viability reagent, 150 μL/well in 96-well plates for 2 h. The supernatant was transferred to a new 96-well plate and absorbance read at 450 nm as recommended in the product datasheet.

FAPs [2] = test: Cell viability assay (cell counting kit-8) of senescent and non-senescent FAPs treated with inhibitors; format: cell-based, mouse; conditions: for viability of senescent versus non-senescent FAPs: Doxo-induced senescence, viability on day 5, 25HC at concentrations between 0.1 and 1 μM; for IC50: FAPs
Experimental: as §1
(§5) Figure 4 EC50 fitted curves (triplicates) of inhibitor effects at 3 and 7 days in FAPS and SCs EC50 was defined as the concentration of inhibitors that provokes a response halfway between baseline and maximum senolytic activity. EC50 values were determined by four- parameter logistic modeling using GraphPad Prism 8.0.
(§6) Hind limb muscles were digested in DMEM containing 0.5% (w/v) collagenase type II (Worthington) for 90 min at 37 °C with trituration and passed through a 40-μm nylon mesh. Erythrocytes were eliminated by treating with BD Pharm Lyse (BD Biosciences). Cells were resuspended in a washing buffer of PBS with 2% FBS and stained with antibodies for 30 min at 4 °C as described ([Kamizaki et al., 2017]). FAPs and SCs were isolated from the suspension by FACS (Aria II, BD Biosciences) using anti-CD31, CD45, Sca-1, PDGFR and VCAM1 antibodies. FAPs were identified as Sca1/PDGFR-positive and CD31-, CD45- and VCAM1-negative cells ([Uezumi et al., 2010]). SCs were identified as VCAM1-positive and CD31-, CD45-, Sca-1 and PDGFR-negative cells ([Liu et al., 2015]).
as §2, §3, §4

[3] = test system: mouse dermal fibroblasts (mDFs); test: Cell viability assay of NS and SEN mouse dermal fibroblasts treated with CRYAB and HMOX1 inhibitors; format: cell-based; conditions: 250 nM Doxo-induced senescence; after 72 h of treatment; 25HC at five or 10 μM
Experimental: The average value of DMSO was set at 1. (B and D) Effects of CRYAB and HMOX1 inhibitors on DMSO-treated NS or Doxo-treated SEN cells; (B) mDFs, (D) IMR-90s. Cells were treated with the inhibitors at the indicated concentrations. Cell viability was measured after 72 h. (C) IMR-90 qRT-PCR. For qPCR: mean +/- SE, n =4, ∗p< 0.05, ∗∗p< 0.01, ∗∗∗p<0.001, ∗∗∗∗p<0.0001 by Dunnett’s multiple comparisons test vs DMSO. For cell viability assays: mean +/- SE, n =3, ∗∗p< 0.01, ∗∗∗p<0.001, ∗∗∗∗p<0.0001 vs 0 mM by student’s t test.
For skin sample collection, mice were euthanized, hair removed from dorsal skin and the area cleaned with alcohol. A small 1 cm x 1 cm region of skin was removed, and subcutaneous fat removed by scalpel. Skin was digested in 2–3 ml of 0.25% trypsin at 37 °C for 1 h. Hair and epidermis were further removed, and the dermis was minced into 2–3 mm pieces. Digestion of the sample in 5 ml of 1 mg/ml collagenase (Sigma, Cat#C5138) in HBSS (with Ca^++ and Mg^++) (Gibco, cat#24020117) was carried out at 37 °C on a shaker for 1 h. Collagenase digestion was stopped by addition of 10 ml 10% FBS DMEM. Filtration of the homogenate through a 70-micron mesh was performed to remove undigested tissue. Differential centrifugation and washing were performed at 1200 rpm for 5 min, and the pellet was resuspended in 10% FBS DMEM then seeded in a six-well plate. Media were changed at 5 days after seeding and then every 3 days.
as §2, §4

SCs [4] = test: Cell viability assay (cell counting kit-8) of senescent and non-senescent SCs treated with inhibitors; format: cell-based, mouse; conditions: for viability of senescent versus non-senescent SCs: Doxo-induced senescence, viability on day 5
Experimental: as §1, §5, §6, §2, §3, §4

senescent cells = test: Senescent cell burden in mice treated with Doxo or Doxo + ABT; conditions: four-month-old male mice; Doxo 10 mg/kg; ABT 50 mg/kg/day after Doxo
SCs [5] = test: Single-cell RNA sequencing of SCs from skeletal muscle of mice treated with PBS, Doxo or Doxo + ABT (differential gene expression); conditions: four-month-old male mice; Doxo 10 mg/kg i.p.; ABT 50 mg/kg/day by gavage, 2 cycles of 5 days
FAPs [6] = test: Single-cell RNA sequencing of FAPs from skeletal muscle of mice treated with PBS, Doxo or Doxo + ABT (differential gene expression); conditions: for senescent FAPs in mouse skeletal muscle (scRNA seq): four-month-old male mice, Doxo 10 mg/kg i.p., ABT 50 mg/kg/day by gavage, 2 cycles of 5 days
[7] = test system: Cdkn1a and Cryab mRNA in gastrocnemius and soleus muscles; test: qRT-PCR of senescence markers and Cryab in muscles of Doxo-treated mice given 25HC; format: in vivo, mouse; conditions: mice, 4 mg/kg Doxo i.p., 5 injections, versus PBS
Experimental: (§7) Figure 8 25HC induces senolysis in vivo in Doxo-treated mice (A) Timeline of 25HC treatment in Doxo-treated mice. Mice were given 4 mg/kg Doxo or PBS for 5 daily injections[A1], then injected with 25HC or vehicle for 7 consecutive days. (B) Mass of gastrocnemius muscles. Muscle weight was normalized to body weight. (C) Cdkn2a and Cryab mRNA levels in gastrocnemius (Gastroc) and soleus (Sol) muscles. RNA was collected 28–30 d after the first treatment with Doxo. mRNA levels were quantified by qRT-PCR, and normalized to actin mRNA levels. The average value of PBS-vehicle was set at 1. (D) 15-d-PGJ2 analysis in urine. Urine was collected at 24 h after the first treatment with 25HC or HbCD. p values versus PBS-Veh or Doxo-Veh are obtained using Tukey's multiple comparisons test. ∗p < 0.05, ∗∗p < 0.01, p < 0.001, and ∗∗∗∗p < 0.0001.
Male C57BL/6J mice (3–4 months old) were purchased from the Jackson Laboratory. We performed five i.p. injections with 4 mg/kg of Doxo (Tocris Bioscience, Product# 2252) for each injection over 10 days (Figure 6A). Therefore, we injected a total of 20 mg/kg of Doxo/mouse over 10 days. We used EFT-PBS (EMD Millipore, Product# TMS-012-A) as a control. To test effects of 25HC (Tocris Bioscience, Product# 5741) on Doxo-treated mice, we prepared three experimental groups (n=15 for each group): 1) PBS+HβCD vehicle (22.5%), 2) Doxo (20 mg/kg)+vehicle (22.5%), 3) Doxo (20 mg/kg)+25HC (50 mg/kg) (Figure 6A); 25HC was dissolved in 22.5% 2-hydroxypropyl-beta-cyclodextrin (HβCD) (Tocris Bioscience, Product 0708). On the Day 5 after the last Doxo/PBS injections, the mice were treated with either 25HC (50 mg/kg) or vehicle by i.p. injections for 7 consecutive days (Figure 6A). 12 hr after the first 25HC or vehicle treatments, urine was collected (Figure 6A) from each group to test for the senolysis marker 15-d-PGJ2. […] Senescence markers p16^INK4a, p21^Cip1 and CRYAB expression was analyzed on gastrocnemius (Gastroc), soleus (So), tibialis anterior (TA), visceral fat (VF), kidney (Ki), liver (Li), lung (Lu), heart (He), and skin (Sk) samples by qRT-PCR. […]

SCs [8] = test: Senescence induction by Doxo in cultured primary SCs (qRT-PCR of marker genes, growth rate); format: cell-based, mouse; conditions: 250 or 100 nM Doxo
FAPs [9] = test: Senescence induction by Doxo in cultured primary FAPs (qRT-PCR of marker genes, growth rate); format: cell-based, mouse; conditions: 250 or 100 nM Doxo
[10] = Body weight and gastrocnemius muscle weight in Doxo-treated mice; format: in vivo, mouse; conditions: 4 mg/kg Doxo i.p., 5 injections, versus PBS
Experimental: as §7
Male C57BL/6J mice (3–4 months old) were purchased from the Jackson Laboratory. We performed five i.p. injections with 4 mg/kg of Doxo (Tocris Bioscience, Product# 2252) for each injection over 10 days (Figure 6A). Therefore, we injected a total of 20 mg/kg of Doxo/mouse over 10 days. […] Senescence markers p16^INK4a, p21^Cip1 and CRYAB expression was analyzed on gastrocnemius (Gastroc), soleus (So), tibialis anterior (TA), visceral fat (VF), kidney (Ki), liver (Li), lung (Lu), heart (He), and skin (Sk) samples by qRT-PCR.

O=C(CC(c1ccccc1)c1ccccc1)Cn1ccnc1 [QC-308]
viability of senescent versus non-senescent HSMMs [1]: significantly decreased cell viability | viability of senescent versus non-senescent FAPs (FAPs [2]): slightly but significantly decreased the viability of FAPs | senolysis in mDF cells [3]: ineffective | viability of senescent versus non-senescent SCs (SCs [4]): no difference in killing

Brc1ccc(CCC2(Cn3ccnc3)OCCO2)cc1.Cl [OB24]
viability of senescent versus non-senescent HSMMs [1]: significantly decreased cell viability | viability of senescent versus non-senescent FAPs (FAPs [2]): slightly but significantly decreased the viability of FAPs | IC50 (FAPs [2]; 7 days in culture): 261 µM | senolysis in mDF cells [3]: ineffective | viability of senescent versus non-senescent SCs (SCs [4]): no difference in killing

CC1(C)CCC(c2ccc(Cl)cc2)=C(CN2CCN(c3ccc(C(=O)NS(=O)(=O)c4ccc(N[C@H](CCN5CCOCC5)CSc5ccccc5)c(S(=O)(=O)C(F)(F)F)c4)cc3)CC2)C1 [ABT263]
burden of senescent cells in mice (senescent cells): reduced burden of senescent cells | IC50 ([1]; 72 h, 3 days in culture): 15.2 µM | IC50 ([1]; 168 h, 7 days in culture): 9 µM | IC50 (FAPs [2]; Mus musculus, 72 h, 3 days in culture): 14.7 µM | IC50 (FAPs [2]; Mus musculus, 168 h, 7 days in culture): 7.5 µM | senescent SCs in mouse skeletal muscle (scRNA seq) (SCs [5]): reduces the fraction | senescent FAPs in mouse skeletal muscle (scRNA seq) (FAPs [6]): reduces the fraction | avg_logFC of gene Capza2 (FAPs [6]; sheet abt_down, gene Capza2, cluster c7, scRNA-seq differential expression): -0.2501 | avg_logFC of gene Coq10b (FAPs [6]; sheet abt_down, gene Coq10b, cluster c7, scRNA-seq differential expression): -0.25 | avg_logFC of gene Hes1 (FAPs [6]; sheet abt_down, gene Hes1, cluster c1, scRNA-seq differential expression): -0.2504 | avg_logFC of gene Pds5b (FAPs [6]; sheet abt_down, gene Pds5b, cluster c9, scRNA-seq differential expression): -0.2501 | avg_logFC of gene Qpct (FAPs [6]; sheet abt_down, gene Qpct, cluster c3, scRNA-seq differential expression): -0.2504 | avg_logFC of gene Creld2 (FAPs [6]; sheet abt_up, gene Creld2, cluster c4, scRNA-seq differential expression): 0.8182 | avg_logFC of gene Cxcl14 (FAPs [6]; sheet abt_up, gene Cxcl14, cluster c5, scRNA-seq differential expression): 0.8906 | avg_logFC of gene Myl9 (FAPs [6]; sheet abt_up, gene Myl9, cluster c9, scRNA-seq differential expression): 0.9071 | avg_logFC of gene Plac8 (FAPs [6]; sheet abt_up, gene Plac8, cluster c3, scRNA-seq differential expression): 0.7972 | avg_logFC of gene Tpm2 (FAPs [6]; sheet abt_up, gene Tpm2, cluster c9, scRNA-seq differential expression): 1.1381 | IC50 (SCs [4]; Mus musculus, 168 h, SCs, 7 days in culture): 14.1 µM

COc1cccc2c1C(=O)c1c(O)c3c(c(O)c1C2=O)C[C@@](O)(C(=O)CO)C[C@@H]3O[C@H]1C[C@H](N)[C@H](O)[C@H](C)O1 [Doxo, Doxorubicin]
Cdkn1A mRNA in gastrocnemius and soleus muscles [7]: significantly increased | senescence induction in cultured SCs (SCs [8]): induced senescence | burden of senescent cells in mice (senescent cells): induced senescence | senescence induction in cultured FAPs (FAPs [9]): induced senescence | body weight [10]: significantly decreased | gastrocnemius muscle weight normalized to body weight [10]: no difference | senescent SCs in mouse skeletal muscle (scRNA seq) (SCs [5]): induces senescence | senescent FAPs in mouse skeletal muscle (scRNA seq) (FAPs [6]): induces senescence
